Test results published in ChEMBL document CHEMBL1145393, “Synthesis and antitumour activity of new tiazofurin analogues bearing a 2,3-anhydro functionality in the furanose ring” (Bioorg Med Chem Lett, 2007).

Experiments:
[1] = test system: MCF7; test: Cytotoxicity against human MCF7 cell line after 48 hrs by MTT assay; format: cell-based; details: MCF7, 48 h
[2] = test system: K562; test: Cytotoxicity against human K562 cells after 48 hrs by MTT assay; format: cell-based; details: K562, 48 h
[3] = test system: Jurkat; test: Cytotoxicity against human Jurkat T cells after 48 hrs by MTT assay; format: cell-based
[4] = test system: Raji; test: Cytotoxicity against human Raji cells after 48 hrs by MTT assay; format: cell-based
[5] = test system: HT-29; test: Cytotoxicity against human HT29 cell line after 48 hrs by MTT assay; format: cell-based; details: HT-29, 48 h
[6] = test system: HL-60; test: Cytotoxicity against human HL60 cell line after 48 hrs by MTT assay; format: cell-based; details: HL-60, 48 h
[7] = test system: MRC5; test: Cytotoxicity against human MRC5 cell line after 48 hrs by MTT assay; format: functional, cell-based; details: MRC5, 48 h

Q: Which results are given for `NC(=O)c1csc(C[C@@H]2O[C@H](CO)[C@H]3O[C@H]32)n1`?
A: IC50 [1]: 9.09 µM; IC50 [2]: 0.49 µM; IC50 [3]: 2.18 µM; IC50 [4]: 0.07 µM; IC50 [5]: 0.09 µM; IC50 [6]: 3.5 µM; IC50 [7]: > 100 µM

Q: What does the source list for `NC(=O)c1csc(C[C@H]2O[C@H](CO)[C@H]3O[C@H]32)n1`?
A: IC50 [1]: 10 µM; IC50 [2]: 0.09 µM; IC50 [3]: 11 µM; IC50 [4]: > 100 µM; IC50 [5]: 0.53 µM; IC50 [6]: > 100 µM; IC50 [7]: > 100 µM

Q: Which IC50 [1] does the source give for `NC(=O)c1csc([C@@H]2O[C@H](CO)[C@H]3O[C@H]32)n1` here?
A: The IC50 was 0.96 µM.

Q: What about the IC50 [2] of the same molecule?
A: Its IC50 is 0.19 µM.

Q: And the IC50 [3]?
A: The IC50 was 4.84 µM.

Q: And the IC50 [4]?
A: The IC50 was 0.54 µM.

Q: And the IC50 [5]?
A: Its IC50 is > 100 µM.

Q: What about the IC50 [6] of the same molecule?
A: The IC50 was 2.08 µM.

Q: And the IC50 [7]?
A: The IC50 was > 100 µM.

Q: `NC(=O)c1csc([C@@H]2O[C@H](CO)[C@@H](O)[C@H]2O)n1` [TIAZOFURIN] was tested. Which IC50 [1] did it give?
A: The IC50 was 6.39 µM.

Q: What about the IC50 [3] of the same molecule?
A: Its IC50 is 0.51 µM.

Q: And the IC50 [4]?
A: Its IC50 is 16.1 µM.

Q: And the IC50 [5]?
A: The IC50 was 0.89 µM.

Q: And the IC50 [6]?
A: Its IC50 is 1.84 µM.

Q: And the IC50 [7]?
A: The IC50 was 0.49 µM.
